Assay results reported in publication PMC11831560, “Development of the Pyrido[2,3-d]pyrimidin-7(8H)-one Scaffold toward Potent and Selective NUAK1 Inhibitors” (ACS Medicinal Chemistry Letters, 2025).

What was measured:
Assay in all cases: Kinase panel radiometric filter binding (33P-ATP)
Assay type in all cases: biochemical
Parameters in all cases: % activity remaining: dose or concentration left out as unconfirmed
JAK3 = biological target: T1, JAK3 (Homo sapiens, UniProt P52333); settings: for % activity remaining: JAK3
T1 sequence (P52333 1-1124): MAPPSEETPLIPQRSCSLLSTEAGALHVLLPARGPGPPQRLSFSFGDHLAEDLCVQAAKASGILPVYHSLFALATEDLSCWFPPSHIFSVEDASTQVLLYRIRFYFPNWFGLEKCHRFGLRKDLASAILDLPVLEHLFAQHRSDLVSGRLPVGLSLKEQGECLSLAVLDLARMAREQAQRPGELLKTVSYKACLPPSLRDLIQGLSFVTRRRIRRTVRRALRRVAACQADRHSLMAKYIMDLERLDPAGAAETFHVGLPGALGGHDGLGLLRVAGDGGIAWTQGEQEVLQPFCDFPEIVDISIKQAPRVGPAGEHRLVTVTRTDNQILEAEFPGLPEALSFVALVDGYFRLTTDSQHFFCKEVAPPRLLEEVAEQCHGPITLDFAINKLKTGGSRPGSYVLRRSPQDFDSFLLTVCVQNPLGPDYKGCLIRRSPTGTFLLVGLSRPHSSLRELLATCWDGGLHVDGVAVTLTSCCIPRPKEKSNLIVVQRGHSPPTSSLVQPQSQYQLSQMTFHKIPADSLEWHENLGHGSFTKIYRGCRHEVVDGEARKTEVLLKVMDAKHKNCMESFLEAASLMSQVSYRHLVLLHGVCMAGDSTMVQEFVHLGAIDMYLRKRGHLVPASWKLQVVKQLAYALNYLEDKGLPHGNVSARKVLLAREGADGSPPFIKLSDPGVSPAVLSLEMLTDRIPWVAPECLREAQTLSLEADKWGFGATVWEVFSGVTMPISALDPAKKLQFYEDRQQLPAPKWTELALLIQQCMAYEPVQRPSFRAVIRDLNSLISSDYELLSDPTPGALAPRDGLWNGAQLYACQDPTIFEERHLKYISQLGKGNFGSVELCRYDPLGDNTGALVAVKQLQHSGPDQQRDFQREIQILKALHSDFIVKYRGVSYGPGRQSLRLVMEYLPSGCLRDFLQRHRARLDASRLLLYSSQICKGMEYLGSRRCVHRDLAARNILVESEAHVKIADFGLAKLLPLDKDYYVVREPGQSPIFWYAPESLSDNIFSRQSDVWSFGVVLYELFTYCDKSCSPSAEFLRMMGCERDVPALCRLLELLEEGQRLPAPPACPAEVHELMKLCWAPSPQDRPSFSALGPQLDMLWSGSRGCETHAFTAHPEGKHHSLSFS
Method: (§1) Table S4: AMPKA kinase activity data (ADP-Glo assay)
(§2) Compound pIC50 (Fold selectivity
(§3) Table S5. Kinase selectivity screening for 9 and 24 at 1 µM against a general kinase panel of 140 targets
(§4) in radiometric filter binding assay using 33P-γ−ATP at the MRC PPU International Centre for Kinase
(§5) Profiling, University of Dundee. pIC50 values were determined for compounds with <20% activity
(§6) Kinase activity s.d. pIC50 activity s.d. pIC50

MARK1 = biological target: T2, MARK1 (Homo sapiens, UniProt Q9P0L2); settings: for % activity remaining: MARK1
T2 construct: purchased MRC PPU
Method: as §1, §2, §3, §4, §5, §6

IGF-1R = IGF-1R (Homo sapiens, UniProt P08069); settings: for % activity remaining: IGF-1R
Method: as §1, §2, §3, §4, §5, §6

MAP4K5 = MAP4K5 (Homo sapiens, UniProt Q9Y4K4); settings: for % activity remaining: MAP4K5
Method: as §1, §2, §3, §4, §5, §6

IR = IR (Homo sapiens, UniProt P06213); settings: for % activity remaining: IR
Method: as §1, §2, §3, §4, §5, §6

VEG-FR = biological target: T3, VEG-FR (Homo sapiens, UniProt P17948); settings: for % activity remaining: VEG-FR
T3 sequence (P17948 784-1338 limits assumed): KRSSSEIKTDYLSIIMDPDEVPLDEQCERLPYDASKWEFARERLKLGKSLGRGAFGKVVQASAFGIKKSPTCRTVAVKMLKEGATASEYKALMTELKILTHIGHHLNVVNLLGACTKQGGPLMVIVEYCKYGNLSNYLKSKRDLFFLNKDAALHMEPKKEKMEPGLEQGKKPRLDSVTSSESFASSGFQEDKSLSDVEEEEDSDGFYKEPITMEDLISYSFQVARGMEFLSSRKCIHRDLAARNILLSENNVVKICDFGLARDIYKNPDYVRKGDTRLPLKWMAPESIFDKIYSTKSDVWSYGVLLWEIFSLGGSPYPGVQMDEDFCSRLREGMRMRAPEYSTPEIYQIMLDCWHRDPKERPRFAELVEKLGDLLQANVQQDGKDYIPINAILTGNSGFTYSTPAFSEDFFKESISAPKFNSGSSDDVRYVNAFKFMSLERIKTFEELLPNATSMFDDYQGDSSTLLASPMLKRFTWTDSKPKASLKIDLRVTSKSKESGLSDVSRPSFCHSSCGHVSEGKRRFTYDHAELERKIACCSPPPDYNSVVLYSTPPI
Method: as §1, §2, §3, §4, §5, §6

[1] = radiometric filter binding panel

Chain of IGF-1R (P08069 31-1367, species assumed): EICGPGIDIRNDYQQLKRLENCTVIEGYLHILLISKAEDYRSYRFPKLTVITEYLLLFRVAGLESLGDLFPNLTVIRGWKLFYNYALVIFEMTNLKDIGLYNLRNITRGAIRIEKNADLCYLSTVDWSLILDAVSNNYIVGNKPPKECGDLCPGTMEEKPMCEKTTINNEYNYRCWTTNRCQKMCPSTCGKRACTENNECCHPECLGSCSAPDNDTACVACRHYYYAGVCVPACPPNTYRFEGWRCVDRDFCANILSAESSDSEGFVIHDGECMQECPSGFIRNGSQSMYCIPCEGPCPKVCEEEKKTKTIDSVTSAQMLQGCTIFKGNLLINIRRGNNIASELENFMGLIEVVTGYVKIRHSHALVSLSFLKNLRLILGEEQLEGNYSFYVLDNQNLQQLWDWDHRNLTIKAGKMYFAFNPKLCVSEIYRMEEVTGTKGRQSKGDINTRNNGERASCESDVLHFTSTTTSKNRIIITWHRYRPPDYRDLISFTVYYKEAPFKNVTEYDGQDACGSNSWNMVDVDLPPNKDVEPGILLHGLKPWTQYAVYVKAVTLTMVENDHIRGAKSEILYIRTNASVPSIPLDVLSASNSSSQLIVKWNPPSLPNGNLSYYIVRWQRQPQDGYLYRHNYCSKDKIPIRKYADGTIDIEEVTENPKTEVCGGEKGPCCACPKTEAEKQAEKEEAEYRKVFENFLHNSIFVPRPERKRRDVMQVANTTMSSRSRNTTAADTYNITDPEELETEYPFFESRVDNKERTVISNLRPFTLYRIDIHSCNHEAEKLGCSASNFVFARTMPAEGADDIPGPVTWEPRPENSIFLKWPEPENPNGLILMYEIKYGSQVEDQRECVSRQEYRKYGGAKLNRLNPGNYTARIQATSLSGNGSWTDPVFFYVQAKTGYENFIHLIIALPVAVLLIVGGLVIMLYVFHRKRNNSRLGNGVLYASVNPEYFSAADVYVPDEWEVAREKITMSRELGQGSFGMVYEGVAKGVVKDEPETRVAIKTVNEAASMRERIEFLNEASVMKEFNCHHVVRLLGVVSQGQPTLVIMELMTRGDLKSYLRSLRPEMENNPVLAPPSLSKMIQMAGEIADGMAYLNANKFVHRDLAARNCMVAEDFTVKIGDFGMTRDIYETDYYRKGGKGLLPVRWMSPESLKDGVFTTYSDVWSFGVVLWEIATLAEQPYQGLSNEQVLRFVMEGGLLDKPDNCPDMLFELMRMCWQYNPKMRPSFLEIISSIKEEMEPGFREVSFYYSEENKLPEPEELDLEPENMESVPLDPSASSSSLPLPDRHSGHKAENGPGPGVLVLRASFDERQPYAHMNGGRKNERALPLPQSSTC
T2 sequence (Q9P0L2 whole entry): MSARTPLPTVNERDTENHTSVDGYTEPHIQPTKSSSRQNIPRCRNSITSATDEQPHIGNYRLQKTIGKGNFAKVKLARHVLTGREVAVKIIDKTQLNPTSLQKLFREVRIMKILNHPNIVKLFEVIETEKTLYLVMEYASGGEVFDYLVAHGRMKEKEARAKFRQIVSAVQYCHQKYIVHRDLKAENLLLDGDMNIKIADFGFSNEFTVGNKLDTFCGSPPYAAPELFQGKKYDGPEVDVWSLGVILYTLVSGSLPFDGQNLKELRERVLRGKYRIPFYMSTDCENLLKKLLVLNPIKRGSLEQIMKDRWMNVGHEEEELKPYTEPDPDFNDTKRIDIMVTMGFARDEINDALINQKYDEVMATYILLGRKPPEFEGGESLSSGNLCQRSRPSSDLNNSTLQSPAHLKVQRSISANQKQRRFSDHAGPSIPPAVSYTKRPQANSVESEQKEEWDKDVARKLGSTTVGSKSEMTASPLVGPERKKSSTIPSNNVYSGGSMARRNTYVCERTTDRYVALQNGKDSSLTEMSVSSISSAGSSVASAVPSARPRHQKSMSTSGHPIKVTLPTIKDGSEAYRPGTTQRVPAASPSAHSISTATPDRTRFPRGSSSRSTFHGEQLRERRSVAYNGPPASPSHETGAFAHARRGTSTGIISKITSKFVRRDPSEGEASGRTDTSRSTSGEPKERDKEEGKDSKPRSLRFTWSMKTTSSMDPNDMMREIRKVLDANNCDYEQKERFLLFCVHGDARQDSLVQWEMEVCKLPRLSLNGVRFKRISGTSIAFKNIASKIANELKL
Chain of IR (P06213 28-1382): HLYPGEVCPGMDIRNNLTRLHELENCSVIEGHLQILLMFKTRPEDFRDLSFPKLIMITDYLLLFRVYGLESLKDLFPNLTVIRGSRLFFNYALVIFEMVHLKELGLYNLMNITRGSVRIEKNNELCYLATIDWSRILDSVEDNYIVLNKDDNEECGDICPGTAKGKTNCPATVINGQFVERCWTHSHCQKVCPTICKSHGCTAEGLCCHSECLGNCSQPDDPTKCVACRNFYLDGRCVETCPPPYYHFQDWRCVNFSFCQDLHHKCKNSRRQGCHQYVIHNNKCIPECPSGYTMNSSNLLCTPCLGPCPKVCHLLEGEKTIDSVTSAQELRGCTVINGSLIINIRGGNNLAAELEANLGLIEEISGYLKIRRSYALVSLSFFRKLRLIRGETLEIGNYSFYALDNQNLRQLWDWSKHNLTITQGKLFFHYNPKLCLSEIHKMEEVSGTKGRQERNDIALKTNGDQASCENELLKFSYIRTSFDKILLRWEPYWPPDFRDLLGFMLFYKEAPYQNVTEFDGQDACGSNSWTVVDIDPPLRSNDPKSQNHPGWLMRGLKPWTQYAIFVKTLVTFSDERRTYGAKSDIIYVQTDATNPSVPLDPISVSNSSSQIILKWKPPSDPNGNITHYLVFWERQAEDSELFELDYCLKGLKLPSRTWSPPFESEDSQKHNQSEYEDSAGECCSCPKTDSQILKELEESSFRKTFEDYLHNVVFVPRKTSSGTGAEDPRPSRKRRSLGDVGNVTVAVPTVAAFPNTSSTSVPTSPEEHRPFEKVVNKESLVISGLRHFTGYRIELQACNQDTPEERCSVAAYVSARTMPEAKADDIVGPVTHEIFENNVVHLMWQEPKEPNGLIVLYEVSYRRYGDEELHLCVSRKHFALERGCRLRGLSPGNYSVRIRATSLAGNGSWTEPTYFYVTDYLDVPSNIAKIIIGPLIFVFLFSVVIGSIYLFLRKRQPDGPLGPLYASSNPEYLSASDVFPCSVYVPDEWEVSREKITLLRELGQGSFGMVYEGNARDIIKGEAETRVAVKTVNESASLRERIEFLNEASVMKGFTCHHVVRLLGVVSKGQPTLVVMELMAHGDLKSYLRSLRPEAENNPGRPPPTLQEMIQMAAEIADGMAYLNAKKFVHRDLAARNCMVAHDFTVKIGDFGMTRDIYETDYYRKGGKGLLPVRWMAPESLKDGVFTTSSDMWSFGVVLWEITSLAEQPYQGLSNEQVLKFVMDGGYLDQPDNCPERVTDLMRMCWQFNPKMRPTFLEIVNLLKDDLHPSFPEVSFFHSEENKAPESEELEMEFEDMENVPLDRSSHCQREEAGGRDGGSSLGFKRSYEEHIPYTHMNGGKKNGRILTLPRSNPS
Chain of MAP4K5 (Q9Y4K4 whole entry, species assumed): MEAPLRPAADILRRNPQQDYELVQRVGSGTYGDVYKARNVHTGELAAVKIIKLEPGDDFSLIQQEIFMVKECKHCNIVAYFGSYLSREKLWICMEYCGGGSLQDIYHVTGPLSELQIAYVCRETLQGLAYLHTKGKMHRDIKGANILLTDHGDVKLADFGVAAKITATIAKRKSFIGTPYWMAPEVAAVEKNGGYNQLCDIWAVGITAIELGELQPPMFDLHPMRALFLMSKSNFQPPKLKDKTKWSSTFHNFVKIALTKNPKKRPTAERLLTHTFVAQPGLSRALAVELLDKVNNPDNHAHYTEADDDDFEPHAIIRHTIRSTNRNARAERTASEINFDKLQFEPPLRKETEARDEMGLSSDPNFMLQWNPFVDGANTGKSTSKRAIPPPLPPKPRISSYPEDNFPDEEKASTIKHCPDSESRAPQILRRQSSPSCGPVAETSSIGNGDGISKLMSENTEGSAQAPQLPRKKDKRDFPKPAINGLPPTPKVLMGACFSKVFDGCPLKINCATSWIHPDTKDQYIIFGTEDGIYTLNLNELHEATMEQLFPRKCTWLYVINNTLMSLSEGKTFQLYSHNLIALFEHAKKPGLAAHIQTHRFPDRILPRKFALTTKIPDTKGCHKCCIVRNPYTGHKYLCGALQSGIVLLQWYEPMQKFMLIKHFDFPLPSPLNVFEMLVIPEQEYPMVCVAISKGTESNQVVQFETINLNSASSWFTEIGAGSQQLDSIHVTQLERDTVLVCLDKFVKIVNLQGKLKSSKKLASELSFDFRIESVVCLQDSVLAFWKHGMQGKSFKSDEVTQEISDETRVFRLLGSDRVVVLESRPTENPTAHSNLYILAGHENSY

| SMILES | % activity remaining (JAK3) | % activity remaining (MARK1) | inhibition at 1 µM (MARK1; at 1 μM, radiometric filter binding assay, Dundee, read-out: MARK1 single point % inhibition) | % activity remaining (IGF-1R) | IC50 (IGF-1R; radiometric filter binding panel, read-out: IGF-1R pIC50 (converted)) | % activity remaining (MAP4K5) | MAP4K5 pIC50 (MAP4K5; [1]) | IC50 (MAP4K5; radiometric filter binding panel, read-out: MAP4K5 pIC50 (converted)) | % activity remaining (IR) | IC50 (IR; radiometric filter binding panel, read-out: IR pIC50 (converted)) | % activity remaining (VEG-FR) | JAK3 pIC50 (JAK3; [1]) | IC50 (JAK3; radiometric filter binding panel, read-out: JAK3 pIC50 (converted)) | IC50 (VEG-FR; radiometric filter binding panel, read-out: VEG-FR pIC50 (converted)) |
| --- | --- | --- | --- | --- | --- | --- | --- | --- | --- | --- | --- | --- | --- | --- |
| Cc1cc(=O)n(C2CCCC2)c2nc(Nc3ccc(N4CC5CC(C4)N5C)cc3)ncc12 [Compound 9] | 22% | 56% | 44% | 18% | 1050 nM | 14% | > 7 | 110 nM | 14% | 263 nM | 71% | – | – | – |
| CN1C2CC1CN(c1ccc(Nc3ncc4ccn(CC5CCOCC5)c4n3)cc1)C2 [Compound 24] | 7% | 94% | – | 104% | – | 78% | – | – | 87% | – | 17% | 7.6 | 23.4 nM | 295 nM |
